Values of other authors as cited in patent US20130004563A1, “MULTIP[…]-ADENOSYLMETHIONINE COMPOSITIONS AND RELATED METHODS” (priority 2011, published 2013).

Key:
[1] = not given; remark: listed apart in the source

Q: Which results are given for S-adenosyl-L-methionine [SAMe]?
A: stability in vitro: relatively unstable; SAMe bioavailability ([1]; enteric-coated single unit tablets, compared with immediate release formulations): higher; half-life ([1]; in the body, single dose): approximately 6 hours
